Reference: article PMC9585589 (ACS Chemical Neuroscience, 2022)
Like-named read-outs stand apart in the source and are kept apart here.

Target: human CB1 receptor (Homo sapiens, UniProt P21554)
Test: biochemical
Format: binding
Parameters: purchased Merck HTS019M; host or cells: Chem-1 cells
Excerpt: Compounds selected for the in vitro binding assay from the first iteration of VS were purchased via MolPort, SIA, Riga, Latvia and Biopurify Phytochemicals Ltd., Chengdu, China. Compounds from the second iteration were purchased from MolPort, SIA, Riga, Latvia and Chemspace, SIA, Riga, Latvia (Supporting Information S3). […] Membranes from cells overexpressing the human CB1 receptor (ChemiScreen CB1 Cannabinoid Receptor Membrane Preparation, cat. no. HTS019M) as well as MgCl2, CaCl2, Trizma Base, NaCl, polyethylenimine (PEI) and dimethyl sulfoxide (DMSO) were purchased from Merck (USA). Bovine serum albumin (BSA) was obtained from Pol-Aura (Poland).
Compounds were dissolved in 50% DMSO and added to the reaction mixture at 10 concentrations equally spaced on a log scale (10^–10 to 10^–4.5 M). The final DMSO concentration was 5%. […] The reaction mixture (500 μL) was incubated for 1.5 h at 30°C . Before harvesting, Whatman GF/B Filter Paper (Brandel, USA) was presoaked with 0.33% PEI buffer for 30 min. and then washed with 2 ml of 50 mM Tris-HCl buffer (pH = 7.4) and 0.5% BSA to minimize non-specific binding. The reaction was terminated by depositing the samples onto GF/B filter paper with the Brandel M-24 Cell Harvester (Brandel, USA). Samples were then rapidly washed 3 times with 2 ml of ice-cold wash buffer (50 mM Tris-HCl pH 7.4, 500 mM NaCl) to separate the bound radioligand from free. Filters were then air-dried for 1 h at 60°C . After drying, filter discs were placed on a flexible 24-well plate and 500 μL of EcoScint-20 scintillant was added to each well. Plates were counted (2 min. per well) in a Trilux MicroBeta^2 2450 scintillation counter (Perkin Elmer, USA). Data were analyzed with GraphPad Prism 5.0 software.[89]

[1] = [3H]CP-55,940 displacement, membranes of Chem-1 cells expressing human CB1
[2] = [3H]CP-55,940 displacement, membranes of Chem-1 cells expressing human CB1, read-out: pKi ± SEM (converted)

Sequence of human CB1 receptor (P21554 whole entry): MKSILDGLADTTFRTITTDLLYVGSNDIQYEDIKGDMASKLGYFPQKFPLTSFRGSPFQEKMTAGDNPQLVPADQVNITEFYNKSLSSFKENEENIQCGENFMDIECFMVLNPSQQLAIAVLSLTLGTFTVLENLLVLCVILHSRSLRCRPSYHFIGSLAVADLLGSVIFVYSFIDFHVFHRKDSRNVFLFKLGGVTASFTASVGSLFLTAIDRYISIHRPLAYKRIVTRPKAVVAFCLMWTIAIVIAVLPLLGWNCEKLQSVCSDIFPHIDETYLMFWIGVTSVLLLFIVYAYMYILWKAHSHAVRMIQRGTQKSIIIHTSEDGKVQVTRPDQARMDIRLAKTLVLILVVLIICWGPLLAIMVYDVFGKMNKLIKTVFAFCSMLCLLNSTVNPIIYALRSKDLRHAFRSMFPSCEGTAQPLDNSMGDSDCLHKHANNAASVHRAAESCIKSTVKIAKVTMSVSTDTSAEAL

SMILES	pKi ± SEM [1]	Ki (μM, 95% CI)	further results
Cc1c(O[C@H](C)C(=O)NC[C@@H](O)c2ccccc2)ccc2c(-c3ccccc3)cc(=O)oc12 (racemic) [Compound 25]	4.86 ± 0.09		Ki (read-out: Ki (μM, 95% CI)): 13.9 µM
Cc1ccc(COc2ccc3c(C)c(CC(=O)N4CCC5(O)CCCCC5C4)c(=O)oc3c2C)cc1 (racemic) [Compound 27]	insoluble	insoluble	
COc1ccc(-c2cc(=O)c3c(O)cc4c(c3o2)C(c2cccc(Cl)c2F)CC(=O)O4)cc1O (racemic) [Compound 31]	no activity	no activity	
Cc1ccc(S(=O)(=O)NC(Cc2c[nH]c3ccccc23)C(=O)Oc2ccc3c4c(c(=O)oc3c2)CCC4)cc1 (racemic) [Compound 36]	4.39 ± 0.09		Ki (read-out: Ki (μM, 95% CI)): 41 µM
COc1cc2c(cc1OC)CN(C(=O)NC(CCSC)C(=O)NC1CCCc3ccccc31)CC2 (racemic) [Compound 39]	4.40 ± 0.07		Ki (read-out: Ki (μM, 95% CI)): 40 µM
CCCCNC(=O)[C@@H]1CN(C(=O)c2cccc(OC)c2)C[C@H]1c1ccc(OC)cc1OC (racemic) [Compound 42]	no activity	no activity	
COc1ccccc1Oc1c(NS(=O)(=O)c2ccc(C(C)(C)C)cc2)nc(-c2ncccn2)nc1OCCO [Compound 1, Bosentan]			Ki (Ki (μM, 95% CI)): 259 µM
O=c1[nH]c2ccccc2n1CCN1CCN(c2cccc(C(F)(F)F)c2)CC1 [Compound 2, Flibanserin]			Ki (Ki (μM, 95% CI)): 109 µM
COc1cc(C(C)=O)ccc1OCCCN1CCC(c2noc3cc(F)ccc23)CC1 [Compound 3, Iloperidone]			Ki (Ki (μM, 95% CI)): 87.9 µM; Ki [2]: 89.1 µM
O=C1[C@@H]2[C@H]3CC[C@H](C3)[C@@H]2C(=O)N1C[C@@H]1CCCC[C@H]1CN1CCN(c2nsc3ccccc23)CC1 [Compound 4, Lurasidone]			Ki (Ki (μM, 95% CI)): 39.8 µM
COC(=O)C1=C(C)NC(C)=C(C(=O)OCCN(C)Cc2ccccc2)C1c1cccc([N+](=O)[O-])c1 (stereo not drawn) [Compound 5, Nicardipine]	no activity	no activity	
CC(C)COc1ccc(CNC(=O)N(Cc2ccc(F)cc2)C2CCN(C)CC2)cc1 [Compound 6, Pimavanserin]			Ki [2]: 33.9 µM
O=C(NC[C@H]1CN(c2ccc(N3CCOCC3=O)cc2)C(=O)O1)c1ccc(Cl)s1 [Compound 7, Rivaroxaban]	no activity	no activity	
CCCSc1nc(N[C@@H]2C[C@H]2c2ccc(F)c(F)c2)c2nnn([C@@H]3C[C@H](OCCO)[C@@H](O)[C@H]3O)c2n1 [Compound 8, Ticagrelor]			Ki [2]: 36.3 µM
CC(C)=CCC[C@](C)(O)[C@H]1CC[C@]2(C)[C@@H]1[C@H](O)C[C@@H]1[C@@]3(C)CC[C@H](O)C(C)(C)[C@@H]3[C@@H](O)C[C@]12C [Compound 10, (20S)-Protopanaxatriol]	no activity	no activity	
O=c1cc(-c2ccc(O)cc2)oc2c(C3O[C@H](CO)[C@@H](O[C@@H]4O[C@H](CO)[C@@H](O)[C@H](O)[C@H]4O)[C@H](O)[C@H]3O)c(O)cc(O)c12 (stereo partly drawn) [Compound 11, 4”-O-Glucosylvitexin]	no activity	no activity	

SMILES	pKi ± SEM [1]	Ki (μM, 95% CI)	further results
C[C@@]12C[C@@]3(O)O[C@@H](O1)[C@]1(COC(=O)c4ccccc4)[C@H]3C[C@@]12O[C@@H]1O[C@H](COC(=O)c2ccccc2)[C@@H](O)[C@H](O)[C@H]1O [Compound 12, Benzoylpaeoniflorin]			Ki (Ki (μM, 95% CI)): 179 µM
O=C(O[C@@H]1O[C@@H]2COC(=O)c3cc(O)c(O)c(O)c3-c3c(cc(O)c(O)c3O)C(=O)O[C@H]([C@H]1O)[C@@H]2O)c1cc(O)c(O)c(O)c1 [Compound 13, Corilagin]			Ki (Ki (μM, 95% CI)): 48 µM
CC(C)(O)[C@@H]1CC[C@](C)([C@H]2[C@@H](O)C[C@@]3(C)[C@@H]4C[C@H](O)[C@H]5C(C)(C)[C@@H](O)CC[C@@]56C[C@@]46CC[C@]23C)O1 [Compound 14, Cyclogalegenol]	3.76 ± 0.20		Ki (read-out: Ki (μM, 95% CI)): 175 µM
COc1cc2c(cc1OC)[C@@H](Cc1ccc(O)c(Oc3cc4c(cc3OC)CCN(C)[C@@H]4Cc3ccc(O)cc3)c1)N(C)CC2 [Compound 16, Liensinine]	no activity	no activity	
COc1cc2c(=O)c3c(O)c([C@@H]4O[C@H](CO[C@@H]5OC[C@](O)(CO)[C@H]5O)[C@@H](O)[C@H](O)[C@H]4O)c(O)cc3oc2cc1O [Compound 18, Polygalaxanthone III]	no activity	no activity	
OCC1=C[C@@H](O)[C@]2(O[C@@H]3O[C@H](CO)[C@@H](O)[C@H](O)[C@H]3O[C@@H]3O[C@H](CO)[C@@H](O)[C@H](O)[C@H]3O)C=CO[C@@H](O[C@@H]3O[C@H](CO)[C@@H](O)[C@H](O)[C@H]3O)[C@H]12 [Compound 19, Rehmannioside D]	no activity	no activity	
COc1cc(C2Oc3cc([C@H]4Oc5cc(O)cc(O)c5C(=O)[C@@H]4O)ccc3OC2CO)ccc1O (stereo partly drawn) [Compound 20, Silybin]			Ki (Ki (μM, 95% CI)): 165 µM
O=c1c(O)cc([C@H]2Oc3cc(O)cc(O)c3C[C@H]2O)cc2c([C@H]3Oc4cc(O)cc(O)c4C[C@H]3O)cc(O)c(O)c12 [Compound 21, Theaflavin]	no activity	no activity	
O=C(/C=C/c1ccc(O)cc1)OC[C@H]1O[C@@H](Oc2c(-c3ccc(O)cc3)oc3cc(O)cc(O)c3c2=O)[C@H](O)[C@@H](O)[C@@H]1O [Compound 22, Tiliroside]			Ki (Ki (μM, 95% CI)): 47.2 µM
O=C(NCCc1ccc(F)cc1)c1cc2c([nH]c3ccccc32)c(-c2ccc(F)cc2)n1 [Compound 23]	no activity	no activity	
CC(C)=CCC/C(C)=C/Cc1cc(C2CC(=O)c3c(O)cc(O)cc3O2)c(O)cc1O (stereo not drawn) [Compound 24, Kuwanon E]			Ki [2]: 30.9 µM
CC(C)=CCCC1(C)C=Cc2c(ccc(C3CC(=O)c4c(O)cc(O)cc4O3)c2O)O1 (stereo not drawn) [Compound 26, Sanggenon N]	4.71 ± 0.05		Ki (read-out: Ki (μM, 95% CI)): 19 µM
COc1ccc(CCNC(=O)c2[nH]c3ccccc3c2NC(=O)c2cccc(C)c2)cc1OC [Compound 28]	no activity	no activity	
CCCS(=O)(=O)Nc1ccc(F)c(C(=O)c2c[nH]c3ncc(-c4ccc(Cl)cc4)cc23)c1F [Compound 29, Vemurafenib]	no activity	no activity	
COc1ccc(-c2nc(C(=O)NCCc3ccc(Cl)cc3Cl)cc3c2[nH]c2ccccc23)cc1OC [Compound 35]	4.35 ± 0.09		Ki (read-out: Ki (μM, 95% CI)): 44 µM
COc1ccc(-c2nc3ccc(C(=O)NCc4ccc(Cl)cc4)cc3nc2-c2ccc(OC)cc2)cc1 [Compound 37]	no activity	no activity	
